According to patent US11352352B2, “Aminopyrimidine compound, preparation method therefor and use thereof” (BEIJING ADAMADLE BIOTECHNOLOGY LIMITED LIABILITY COMPANY, priority 2017, dated 2022):
pIC50: −log10 of the molar value.

Columns and labels:
Assay in all cases: Cell proliferation inhibition experiment, CellTiter-Glo (CTG) method
Assay type in all cases: cell-based
NCI-H1975 = conditions: for pIC50: Homo sapiens, NCI-H1975, 72 h, NCI-H1975 cells, CTG, 3 days; for A-431/NCI-H1975 Selectivity: ratio of A-431 IC50 to NCI-H1975 IC50
Procedure, shortened: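 NCI-H1975 cells with viability above 90% by trypan blue were seeded at 90 μL per well in black 96-well plates and incubated overnight at 37° C., 5% CO2. Compounds were added at nine concentrations in triplicate, and viability was measured with CellTiter-Glo luminescence on EnVision. IC50 came from non-linear S-curve fitting in GraphPad Prism 5.0.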

PC-9 = conditions: Homo sapiens, PC-9, 72 h, PC-9 cells, 3 days
Procedure, shortened: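 Cells in log-phase growth (viability above 90% by trypan blue) were seeded at 90 μL per well in black-walled, clear-bottom 96-well plates and incubated overnight at 37° C., 5% CO2. A T0 plate was read the next day. Test compounds were added at nine concentrations in triplicate with a solvent control. Viability was measured by CellTiter-Glo luminescence on EnVision, and IC50 came from non-linear S-curve fitting in GraphPad Prism 5.0.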

A-431 = conditions: Homo sapiens, A-431, 72 h, A-431 cells, 3 days
Procedure, shortened: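 Cells seeded overnight at 37 °C, 5% CO2, then treated with nine 3-fold dilutions in triplicate, top 30 μM for A-431 and 1.111 μM for NCI-H1975 and PC-9; solvent control. After 3 days, viability read by CellTiter-Glo luminescence; IC50 from non-linear sigmoidal fit of survival rate.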

SMILES | pIC50 (NCI-H1975) | A-431/NCI-H1975 Selectivity (NCI-H1975) | pIC50 (PC-9) | pIC50 (A-431)
C=CC(=O)Nc1cc(Nc2cc(-c3ccc4cnn(C)c4c3)ncn2)c(OC)cc1OCCN(C)C [compound 169] | 7.46 | 47.9 | 7.94 | 5.78
C=CC(=O)Nc1cc(Nc2cc(-c3ccc4cnn(C)c4c3)ncn2)c(OC(F)F)cc1OCCN(C)C [compound 170] | 7.43 | 44.1 | 7.55 | 5.78
C=CC(=O)Nc1cc(Nc2cc(-c3ccc4c(cnn4C)c3)ncn2)c(OC(F)F)cc1OCCN(C)C [compound 171] | 7.58 | 28.4 | 7.42 | 6.13
C=CC(=O)Nc1cc(Nc2cc(-c3ccc4cnn(C)c4c3)ncn2)c(OC(F)F)cc1N1CCC(N(C)C)CC1 [compound 174] | 7.63 | 56.4 | 7.81 | 5.88
C=CC(=O)Nc1cc(Nc2cc(-c3ccc4c(cnn4C)c3)ncn2)c(OC(F)F)cc1N1CCC(N(C)C)CC1 [compound 175] | 8.09 | 98.0 | 7.59 | 6.10
C=CC(=O)Nc1cc(Nc2nccc(-c3ccc4cnn(C)c4c3)n2)c(OC(F)F)cc1N(C)CCN(C)C [compound 177] | 7.72 | 77.3 | 7.63 | 5.83
C=CC(=O)Nc1c(OCCN(C)C)cc(OC)c(Nc2cc(-c3ccc4c(cnn4C)c3)ncn2)c1F [compound 178] | 7.37 | 46.7 | 7.46 | 5.70
C=CC(=O)Nc1cc(Nc2cc(-c3ccc4cnn(C)c4c3)ncn2)c(OC(F)F)cc1NCCN(C)C [compound 181] | 7.34 | 36.7 | 7.67 | 5.77
C=CC(=O)Nc1cc(Nc2cc(-c3ccc4cnn(C)c4c3)ncn2)c(OC(F)F)cc1N1CCN(CCN(C)C)CC1 [compound 182] | 7.27 | 32.6 | 7.25 | 5.76
C=CC(=O)Nc1cc(Nc2cc(-c3ccc4cnn(C)c4c3)ncn2)c(OC(F)F)cc1N(C)CCN(CC)CC [compound 183] | 7.39 | 24.4 | 7.16 | 6.01
C=CC(=O)Nc1cc(Nc2cc(-c3ccc4cnn(C)c4c3)ncn2)c(OC)cc1N1CCN(C2CCN(C)CC2)CC1 [compound 184] | 7.31 | 21.3 | 7.49 | 5.98
C=CC(=O)Nc1cc(Nc2cc(-c3ccc4c(cnn4C)c3)ncn2)c(OC(F)F)cc1OCCN1CCN(C)CC1 [compound 185] | 7.27 | 37.8 | 7.36 | 5.69
C=CC(=O)Nc1cc(Nc2cc(-c3ccc4c(cnn4C)c3)ncn2)c(OC)cc1OCCN(C)C(C)C [compound 186] | 7.12 | 33.7 | 7.30 | 5.59
C=CC(=O)Nc1cc(Nc2cc(-c3ccc4c(cnn4C)c3)ncn2)c(OC(F)F)cc1OCCN(C)C(C)C [compound 187] | 7.28 | 45.4 | 7.33 | 5.62
C=CC(=O)Nc1cc(Nc2cc(-c3ccc4cnn(C)c4c3)ncn2)c(OC)cc1OCCN(C)C(C)C [compound 188] | 6.94 | 24.5 | 7.25 | 5.55
C=CC(=O)Nc1cc(Nc2cc(-c3ccc4c(cnn4C)c3)ncn2)c(OC)cc1OCCN1CCCCC1 [compound 189] | 6.96 | 24.3 | 7.62 | 5.58

SMILES | pIC50 (NCI-H1975) | A-431/NCI-H1975 Selectivity (NCI-H1975) | pIC50 (PC-9) | pIC50 (A-431)
C=CC(=O)Nc1cc(Nc2cc(-c3ccc4nc(C)sc4c3)ncn2)c(OC)cc1N1CCN(CCN(C)C)CC1 [compound 190] | 6.97 | 19.3 | 7.61 | 5.68
C=CC(=O)Nc1cc(Nc2cc(-c3ccc4nc(C)sc4c3)ncn2)c(OC)cc1N1CCC(N(CC)CC)CC1 [compound 191] | 7.04 | 19.2 | 7.25 | 5.75
C=CC(=O)Nc1cc(Nc2cc(-c3cc4cnn(C)c4cc3F)ncn2)c(OC)cc1N1C[C@@H](C)N(C)[C@@H](C)C1 [compound 192] | 7.33 | 39.2 | 7.48 | 5.73
C=CC(=O)Nc1cc(Nc2cc(-c3cc4cnn(C)c4cc3F)ncn2)c(OC)cc1N1CCC(N(CC)CC)CC1 [compound 193] | 7.28 | 28.0 | 7.51 | 5.83
C=CC(=O)Nc1cc(Nc2cc(-c3cc4cnn(C)c4cc3F)ncn2)c(OC)cc1OCCN(C)C [compound 194] | 7.12 | 21.8 | 7.34 | 5.79
C=CC(=O)Nc1cc(Nc2cc(-c3cc4cnn(C)c4cc3F)ncn2)c(OC)cc1N(C)C1CCN(C)C1 (stereo not drawn) [compound 195] | 7.69 | 70.5 | 7.71 | 5.84
C=CC(=O)Nc1cc(Nc2cc(-c3ccc4cnn(C)c4c3)ncn2)c(OC)cc1N(C)CCN(C)C(C)C [compound 196] | 7.44 | 55.4 | 7.68 | 5.70
C=CC(=O)Nc1c(N(C)CCN(C)C(C)C)cc(OC)c(Nc2cc(-c3ccc4c(cnn4C)c3)ncn2)c1F [compound 197] | 7.68 | 65.1 | 7.87 | 5.87
C=CC(=O)Nc1c(N(C)CCN(C)C(C)C)cc(OC)c(Nc2cc(-c3ccc4cnn(C)c4c3)ncn2)c1F [compound 198] | 7.11 | 30.4 | 7.18 | 5.63
C=CC(=O)Nc1cc(Nc2cc(-c3ccc4cnn(C)c4c3)ncn2)c(OC(F)F)cc1N(C)CCN(C)C(C)C [compound 199] | 7.42 | 52.3 | 7.61 | 5.70
C=CC(=O)Nc1c(N(C)CCN(C)CC)cc(OC)c(Nc2cc(-c3ccc4c(cnn4C)c3)ncn2)c1F [compound 200] | 7.85 |  | 7.57 | 6.01
C=CC(=O)Nc1c(N(C)CCN(C)CC)cc(OC)c(Nc2cc(-c3ccc4cnn(C)c4c3)ncn2)c1F [compound 201] | 7.61 | 54.9 | 7.68 | 5.87
C=CC(=O)Nc1cc(Nc2cc(-c3ccc4c(cnn4C)c3)ncn2)c(OC)cc1N1CCC(N2CCC(OC)C2)CC1 (stereo not drawn) [compound 202] | 7.97 | 74.6 | 7.90 | 6.10
C=CC(=O)Nc1cc(Nc2cc(-c3ccc4c(cnn4C)c3)ncn2)c(OC)cc1N1CCC(N2CCC(OC)CC2)CC1 [compound 204] | 7.80 | 56.7 | 7.80 | 6.05
C=CC(=O)Nc1cc(Nc2cc(-c3ccc4cnn(C)c4c3)ncn2)c(OC)cc1N1CCC(N2CCC(OC)CC2)CC1 [compound 205] | 7.89 |  | 8.12 | 6.05
C=CC(=O)Nc1cc(Nc2cc(-c3ccc4cnn(C)c4c3)ncn2)c(OC)cc1N1CCC(N2CC(OC)C2)CC1 [compound 207] | 7.99 | 87.7 | 8.25 | 6.05
